Results: patent US7074801B1, “Nitrogen-containing condensed cyclic compound having a pyrazolyl group as a substituent group and pharmaceutical composition thereof” (Eisai Co., Ltd., priority 2001, dated 2006)
Counter-ions that a name gives are not always drawn. Like-named read-outs stand apart in the source and are kept apart here.

System: STAT6
Assay: Inhibitory test on STAT6 activation: IL-4-induced alkali phosphatase STAT6 reporter in 293 cells stably expressing the STAT6 gene and STAT6 reporter gene
Format: cell-based
Conditions: HEK293, 1 ng/ml human recombinant IL-4, 16 hours, 293 cells with STAT6 reporter, read-out: Inhibitory activity IC50 (concentration at which the alkali phosphatase activity induced by IL-4 was inhibited by 50%)
Experimental: The inhibitory action of the present compound on activation of STAT6 was evaluated according to the following experiments.
1) Construction of a STAT6 Reporter Gene
An oligonucleotide of SEQ ID NO:1 in which three STAT6-binding regions on a human immunoglobulin germline E gene promoter had been linked was mixed with its complementary chain, thermally denatured and annealed, and 5′- and 3′-ends thereof were cleaved with restriction enzymes Kpn I (Code No. 1068A, Takara Shuzo) and Xba I (Code No. 1093A, Takara Shuzo) respectively, and the resulting fragment was cloned into a Kpn I/Xba I site of pUG-BGH-PLAP vector (described in Molecular Pharmacology, 49:860–873, 1996). To induce a basic transcriptional factor, a TK promoter region of herpes virus was cloned into an Xba I/Hind III (Code No. 1060A, Takara Shuzo) site of the pUG-BGH-PLAP vector. To obtain a stably expressing cell strain, a neomycin resistance gene (PGK-neo expression cassette) was integrated with an Sal I (Code No. 1080A, Takara Shuzo) of this vector. Cloning of the TK promoter and PGK-neo expression cassette was carried out according to Molecular Pharmacology, 49:860–873, 1996.
The underlined sites are a Kpn I recognition site and Xba I recognition site respectively. 2) Construction of an STAT6 Expression Vector
An oligonucleotide of SEQ ID NO:2 containing an initiation codon of STAT6 gene and an oligonucleotide of SEQ ID NO:3 containing a stop codon were used, and total RNA was prepared from human peripheral blood cells by using RNeasy Mini kit (Code No. 74104, OIAGEN). Then, cDNA was prepared by reverse transcription reaction using Takara RNA LA PCR kit (Code No. RR012A, Takara Shuzo) and then subjected to PCR reaction with primers of SEQ ID NOS:2 and 3, to amplify the STAT6 gene. • (SEQ ID NO:2) 5′-[…]-3′ The underlined site is an EcoR I recognition site. • (SEQ ID NO:3) 5′-[…]-3′ The underlined site is an Xho I recognition site.
The PCR product was digested with EcoR I (Code No. 1040A, Takara Shuzo) and Xho I (1094A, Takara Shuzo), and the digested fragment was isolated on an agarose gel. The isolated fragment was integrated into a vector fragment obtained by digesting pcDNA3.1 (+) (Code No. U790-20, Invitrogen) vector with EcoRI/Xho I.
3) Introduction of the Gene and Preparation of a Stably Expressing Cell Strain
Human fetal kidney-derived 293 cells (American Type Culture Collection), 3.0×10^5 cells, were spread on a Falcon tissue culture 6-well plate (Code No. 35-3046, Becton Dickinson) and cultured overnight. 1.5 μg of the prepared STAT6 reporter gene, 1.5 μg of the STAT6 gene and 20 μl of lipofectamine (Code No. 18324-012, GIBCO BRL) were mixed in 0.3 ml OPTI-MEM medium (Code No. 31985-070) and left at room temperature for 20 minutes. Thereafter, 1.2 ml OPTI-MEM medium was further added to the cells washed with OPTI-MEM medium not containing fetal bovine serum, and the cells were cultured for 2 hours. 1.5 ml medium containing fetal bovine serum was added thereto, and the cells were cultured for additional 19 hours. The medium was exchanged with a fresh one, and Geneticin (Code No. G-5013, SIGMA) was added at a concentration of 1 mg/ml, and the cells were cultured, and chemical-resistant cells were selected. The resulting chemical-resistant cells were floated in a medium containing 1 mg/ml Geneticin, then spread at a density of 0.5 cell/well on a 96-well microplate (Code No. 35-3072, Becton Dickinson) and cloned to give a clone expressing alkali phosphatase in response to IL-4.
4) Inhibitory Test on STAT6 Activation
The cells stably expressing the STAT6 gene and STAT6 reporter gene and expressing alkali phosphatase in response to IL-4 were spread at a density of 5000 cells/180 μl/well on a 96-well microplate (Code No. 35-3072, Becton Dickinson) and cultured overnight. […]

SMILES	IC50 (Table 2)	IC50 (Table 1)
O=C(c1ccc(-c2n[nH]cc2-c2ccc3ncc(-c4ccccn4)n3c2)cc1)N1CCOCC1 [Example 115, Morpholino(4-{4-[3-(2-pyridyl)imidazo[1,2-a]pyridin-6-yl]-1H-3-pyrazolyl}phenyl)methanone]		< 10 nM
O=S(=O)(c1ccc(-c2ncnc3ccc(-c4c[nH]nc4-c4ccc(F)cc4)cc23)s1)N1CCCC1 [Example 850, 6-[3-(4-Fluorophenyl)-1H-pyrazol-4-yl]-4-[5-(pyrrolidine-1-sulfonyl)thiophen-2-yl]quinazoline dihydrochloride]	100 to 1000 nM	
Cc1n[nH]cc1-c1ccc2nccc(N3CCN(C(=O)Nc4ccccc4)CC3)c2c1 [Example 212, N-Phenyl-4-[6-(3-methyl-1H-4-pyrazolyl)-4-quinolyl]-1-piperazine carboxamide dihydrochloride]		< 10 nM
CCS(=O)(=O)c1ccc(-c2ncnc3ccc(-c4c[nH]nc4-c4ccc(F)cc4)cc23)s1 [Example 896, 4-(5-Ethanesulfonylthiophen-2-yl)-6-[3-(4-fluorophenyl)-1H-pyrazol-4-yl] quinazoline]	< 10 nM	
CS(=O)(=O)c1cnc(-c2ncnc3ccc(-c4c[nH]nc4-c4ccc(F)cc4)cc23)s1 [Example 897, 6-[3-(4-Fluorophenyl)-1H-pyrazol-4-yl]-4-(5-methylsulfonylthiazol-2-yl) quinazoline]	< 10 nM	
O=C(N1CCCC1)N1CCN(c2ccnc3ccc(-c4c[nH]nc4C(F)(F)F)cc23)CC1 [Example 224, Tetrahydro-1H-1-pyrrolyl{4-[6-(3-trifluoromethyl-1H-pyrazolyl)-4-quinolyl]piperazin-1-yl}methanone]		< 10 nM
O=C(Nc1nc(C2CC2)cs1)c1ccc(-c2cnc3ccc(-c4cn[nH]c4)cn23)cc1F [Example 652, N1-(4-Cyclopropyl-1,3-thiazol-2-yl)-2-fluoro-4-[6-(1H-4-pyrazolyl)imidazo[1,2-a]pyridin-3-yl]benzamide dihydrochloride]		< 10 nM
N#CCCCS(=O)(=O)c1ccc(-c2cnc3ccc(-c4c[nH]nc4-c4ccc(F)cc4)cn23)s1 [Example 626, 4-[(5-{6-[3-(4-Fluorophenyl)-1H-4-pyrazolyl]imidazo[1,2-a]pyridin-3-yl}-2-thienyl)sulfonyl]butane nitrile hydrochloride]		< 10 nM
CC(C)NC(=O)Nc1ccc(-c2cnc3ccc(-c4cn[nH]c4)cn23)cc1F [Example 699, N-12-Fluoro-4-[6-(1H-4-pyrazolyl)imidazo[1,2-a]pyridin-3-yl] phenyl}-N′-isopropylurea hydrochloride]		10 to 100 nM
c1ccc(-c2cnc3ccc(-c4c[nH]nc4-c4ccc(N5CCOCC5)cc4)cn23)nc1 [Example 539, 6-[3-(4-Morpholine-4-ylphenyl)-1H-pyrazol-4-yl]-3-(pyridin-2-yl)imidazo[1,2-a]pyridine]		< 10 nM
C[C@H](NC(=O)c1ccc(-n2cnc3ccc(-c4cn[nH]c4)cc32)cc1F)C(=O)c1ccc(F)cc1 [Example 729, N1-[(1S)-2-(4-Fluorophenyl-1-methyl-2-oxoethyl)-2-fluoro-4-[6-(1H-4-pyrazolyl)-1H-benzo[d]imidazol-1-yl]benzamide hydrochloride]	< 10 nM	
Fc1ccc(-c2n[nH]cc2-c2ccc3ncc(-c4nnc(C5CC5)s4)n3c2)c(F)c1 [Example 556, 3-(5-Cyclopropyl[1,3,4]thiadiazol-2-yl)6-[3-(2,4-difluorophenyl)-1H-pyrazol-4-yl]imidazo[1,2-a]pyridine]		< 10 nM
CS(=O)(=O)c1cc(F)cc(N2CCN(c3ncnc4ccc(-c5cn[nH]c5)cc34)CC2)c1 [Example 845, 4-[4-(3-Fluoro-5-methylsulfonylphenyl)piperazin-1-yl]-6-(1H-4-pyrazolyl)quinazoline dihydrochloride]	< 10 nM	
N#Cc1ccc(-c2n[nH]cc2-c2ccc3ncc(-c4ccc(CN5CCC[C@H]5C(N)=O)s4)n3c2)cc1 [Example 109, (2S)-1-{[(5-{6-[3-(4-Cyanophenyl)-1H-4-pyrazolyl]imidazo-[1,2-a]pyridin-3-yl}-2-thienyl)methyl]tetrahydro-1H-2-pyrrolecarboxyamidetrihydrochloride]		< 10 nM
Fc1cccc(F)c1-c1n[nH]cc1-c1ccc2ncn(-c3ccc(Cl)cn3)c2c1 [Example 727, 1-(5-Chloropyridin-2-yl)-6-[3-(2,6-difluorophenyl)-1H-4-pyrazolyl]-1H-benzo[d]imidazole trihydrochloride]	< 10 nM	
CN1CCN(c2ccnc3ccc(-c4c[nH]nc4-c4ccc(F)cc4)cc23)CC1 [Example 203, 6-[3-(4-Fluorophenyl)-1H-4-pyrazolyl]-4-(4-methylpiperazin-1-yl)quinoline dihydrochloride]		10 to 100 nM

Next, values leading:

IC50 (Table 2)	IC50 (Table 1)	SMILES
< 10 nM		Cc1cccc(N2CCN(c3ncnc4ccc(-c5cn[nH]c5)cc34)CC2)c1 [Example 934, 6-(1H-Pyrazol-4-yl)-4-(4-m-tolylpiperazin-1-yl)-quinazoline tri-trifluoroacetate]
10 to 100 nM		Fc1ccc(-c2n[nH]cc2-c2ccc3ncnc(-c4nnc(C5CC5)o4)c3c2)c(F)c1 [Example 907, 4-(5-Cyclopropyl[1,3,4]oxadiazol-2-yl)-6-[3-(2,4-difluorophenyl)-1H-pyrazol-4-yl] quinazoline]
< 10 nM		CS(=O)(=O)c1cccc(N2CCN(c3ncnc4ccc(-c5c[nH]nc5-c5ccc6c(c5)OCO6)cc34)CC2)c1 [Example 964, 6-(3-Benzo[1,3]dioxol-5-yl-1H-pyrazol-4-yl)-4-[4-(3-methylsulfonylphenyl)piperazin-1-yl]quinazoline tri-trifluoroacetate]
100 to 1000 nM		CS(=O)(=O)c1ccc(-c2ncnc3ccc(-c4c[nH]nc4CN4CCOCC4)cc23)s1 [Example 904, 4-(5-Methylsulfonylthiophen-2-yl)-6-(3-morpholin-4-ylmethyl-1H-pyrazol-4-yl) quinazoline]
< 10 nM		Cc1cnn(-c2ncnc3ccc(-c4c[nH]nc4-c4c(F)cccc4F)cc23)c1 [Example 913, 6-[3-(2,6-Difluorophenyl)-1H-pyrazol-4-yl]-4-(4-methylpyrazol-1-yl) quinazoline]
< 10 nM		Fc1ccc(-c2n[nH]cc2-c2ccc3ncnc(-c4nnc(C5CC5)s4)c3c2)c(F)c1 [Example 908, 4-(5-Cyclopropyl[1,3,4]thiadiazol-2-yl)-6-[3-(2,4-difluorophenyl)-1H-pyrazol-4-yl] quinazoline]
10 to 100 nM		O=S(=O)(Nc1cccc(N2CCN(c3ncnc4ccc(-c5cn[nH]c5)cc34)CC2)c1)c1cccs1 [Example 993, Thiophene-2-sulfonic acid (3-{4-[6-(1H-pyrazol-4-yl)quinazolin-4-yl]piperazin-1-yl)phenyl)amide tri-trifluoroacetate]
< 10 nM		COc1ccc(-c2n[nH]cc2-c2ccc3ncnc(N4CCN(c5cccc(S(C)(=O)=O)c5)CC4)c3c2)cc1OC [Example 963, 6-[3-(3,4-Dimethoxyphenyl)-1H-pyrazol-4-yl]-4-[4-(3-methylsulfonylphenyl)piperazin-1-yl]-quinazoline tri-trifluoroacetate]
